Source: patent publication US9579381B2 (priority 2012, dated 2017)

System: H37Rv S315T (KatG mutant)
Format: cell-based, Mycobacterium tuberculosis

## NNC(=O)c1ccncc1 [INH, Isoniazid]
  dependence of activity on KatG: dependent upon KatG
